Measurements published in patent US12083124B2 (Incyte Corporation, priority 2019, dated 2024).
Read-outs that look alike come from different tables or passages of the source.

Tests used:
[1] = biological target: wild-type un-phosphorylated FGFR3 (Homo sapiens, UniProt P22607); experiment: FGFR Enzymatic Assay (FRET peptide phosphorylation), FGFR3
[2] = biological target: wild-type un-phosphorylated FGFR1 (Homo sapiens, UniProt P11362); experiment: FGFR Enzymatic Assay (FRET peptide phosphorylation), FGFR1; settings: pre-incubated for 4 hours
[3] = biological target: wild-type un-phosphorylated FGFR4 (Homo sapiens, UniProt P22455); experiment: FGFR Enzymatic Assay (FRET peptide phosphorylation), FGFR4
[4] = biological target: wild-type un-phosphorylated FGFR2 (Homo sapiens, UniProt P21802); experiment: FGFR Enzymatic Assay (FRET peptide phosphorylation), FGFR2
[5] = read-out: FGFR1, wild-type un-phosphorylated FGFR1
[6] = read-out: FGFR4, wild-type un-phosphorylated FGFR4, pre-incubated for 4 hours
[7] = FGFR1, wild-type un-phosphorylated FGFR1
[8] = read-out: FGFR2, wild-type un-phosphorylated FGFR2, pre-incubated for 4 hours

wild-type un-phosphorylated FGFR4, sequence (P22455 22-802): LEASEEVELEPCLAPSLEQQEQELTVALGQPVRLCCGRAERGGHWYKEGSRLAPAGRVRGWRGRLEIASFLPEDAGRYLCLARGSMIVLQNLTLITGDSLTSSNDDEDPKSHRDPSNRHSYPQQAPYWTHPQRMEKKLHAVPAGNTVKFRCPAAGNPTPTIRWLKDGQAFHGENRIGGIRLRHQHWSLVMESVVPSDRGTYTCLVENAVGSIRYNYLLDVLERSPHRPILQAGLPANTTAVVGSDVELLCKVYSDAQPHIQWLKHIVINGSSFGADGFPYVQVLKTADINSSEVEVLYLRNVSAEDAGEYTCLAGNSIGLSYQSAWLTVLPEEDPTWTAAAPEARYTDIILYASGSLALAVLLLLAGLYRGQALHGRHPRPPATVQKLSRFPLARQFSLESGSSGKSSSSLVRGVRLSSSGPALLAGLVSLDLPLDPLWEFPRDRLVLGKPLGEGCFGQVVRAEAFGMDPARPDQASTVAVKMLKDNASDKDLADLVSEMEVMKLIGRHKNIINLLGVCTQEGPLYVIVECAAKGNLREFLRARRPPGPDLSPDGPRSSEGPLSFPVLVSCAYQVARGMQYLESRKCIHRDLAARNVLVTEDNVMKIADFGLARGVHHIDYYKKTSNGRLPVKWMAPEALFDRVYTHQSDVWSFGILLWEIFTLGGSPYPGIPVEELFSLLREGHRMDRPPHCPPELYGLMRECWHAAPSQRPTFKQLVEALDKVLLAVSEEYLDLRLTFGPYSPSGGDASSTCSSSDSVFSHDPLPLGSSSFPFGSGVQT
wild-type un-phosphorylated FGFR2, sequence (P21802 22-821): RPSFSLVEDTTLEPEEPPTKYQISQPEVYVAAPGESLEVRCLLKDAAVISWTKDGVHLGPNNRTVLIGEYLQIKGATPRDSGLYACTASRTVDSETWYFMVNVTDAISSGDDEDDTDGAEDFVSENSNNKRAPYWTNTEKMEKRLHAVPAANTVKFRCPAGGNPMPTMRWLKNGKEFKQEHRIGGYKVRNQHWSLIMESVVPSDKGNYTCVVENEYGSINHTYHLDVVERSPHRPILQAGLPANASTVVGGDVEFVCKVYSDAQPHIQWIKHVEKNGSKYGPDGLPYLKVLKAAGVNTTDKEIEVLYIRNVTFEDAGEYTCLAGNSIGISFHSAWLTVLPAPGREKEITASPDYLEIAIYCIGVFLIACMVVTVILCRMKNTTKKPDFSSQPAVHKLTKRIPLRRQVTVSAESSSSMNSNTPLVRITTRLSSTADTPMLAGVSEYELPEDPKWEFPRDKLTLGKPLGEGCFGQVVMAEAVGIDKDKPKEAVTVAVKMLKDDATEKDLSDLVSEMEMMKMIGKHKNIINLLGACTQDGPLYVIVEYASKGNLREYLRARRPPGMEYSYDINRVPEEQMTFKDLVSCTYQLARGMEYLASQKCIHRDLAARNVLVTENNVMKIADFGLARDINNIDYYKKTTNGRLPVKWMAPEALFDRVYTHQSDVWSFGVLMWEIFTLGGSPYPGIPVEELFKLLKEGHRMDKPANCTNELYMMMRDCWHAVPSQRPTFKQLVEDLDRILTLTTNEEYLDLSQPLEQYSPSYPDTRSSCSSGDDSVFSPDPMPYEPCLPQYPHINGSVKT
wild-type un-phosphorylated FGFR1, sequence (P11362 22-822): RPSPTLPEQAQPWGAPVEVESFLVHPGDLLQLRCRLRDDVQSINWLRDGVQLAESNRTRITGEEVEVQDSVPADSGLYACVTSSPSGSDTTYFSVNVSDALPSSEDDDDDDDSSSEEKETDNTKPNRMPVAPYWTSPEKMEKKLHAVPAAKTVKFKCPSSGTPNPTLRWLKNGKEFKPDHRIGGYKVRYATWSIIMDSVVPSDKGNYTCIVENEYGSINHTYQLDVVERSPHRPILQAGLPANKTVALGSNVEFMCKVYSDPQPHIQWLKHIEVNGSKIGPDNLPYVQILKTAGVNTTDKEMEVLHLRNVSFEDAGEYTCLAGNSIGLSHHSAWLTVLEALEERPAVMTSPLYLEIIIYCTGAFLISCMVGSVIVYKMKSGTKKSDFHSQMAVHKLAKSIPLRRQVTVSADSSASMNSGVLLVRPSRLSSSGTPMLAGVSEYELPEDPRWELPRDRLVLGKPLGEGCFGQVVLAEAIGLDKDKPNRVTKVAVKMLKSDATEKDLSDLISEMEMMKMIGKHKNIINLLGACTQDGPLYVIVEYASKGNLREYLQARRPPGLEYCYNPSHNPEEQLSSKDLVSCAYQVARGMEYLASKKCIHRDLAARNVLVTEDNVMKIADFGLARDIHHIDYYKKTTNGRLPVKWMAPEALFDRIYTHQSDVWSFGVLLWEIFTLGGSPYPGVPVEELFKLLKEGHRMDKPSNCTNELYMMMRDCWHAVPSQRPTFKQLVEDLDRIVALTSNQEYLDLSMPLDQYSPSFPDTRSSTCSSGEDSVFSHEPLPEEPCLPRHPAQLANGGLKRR
wild-type un-phosphorylated FGFR3, sequence (P22607 23-806): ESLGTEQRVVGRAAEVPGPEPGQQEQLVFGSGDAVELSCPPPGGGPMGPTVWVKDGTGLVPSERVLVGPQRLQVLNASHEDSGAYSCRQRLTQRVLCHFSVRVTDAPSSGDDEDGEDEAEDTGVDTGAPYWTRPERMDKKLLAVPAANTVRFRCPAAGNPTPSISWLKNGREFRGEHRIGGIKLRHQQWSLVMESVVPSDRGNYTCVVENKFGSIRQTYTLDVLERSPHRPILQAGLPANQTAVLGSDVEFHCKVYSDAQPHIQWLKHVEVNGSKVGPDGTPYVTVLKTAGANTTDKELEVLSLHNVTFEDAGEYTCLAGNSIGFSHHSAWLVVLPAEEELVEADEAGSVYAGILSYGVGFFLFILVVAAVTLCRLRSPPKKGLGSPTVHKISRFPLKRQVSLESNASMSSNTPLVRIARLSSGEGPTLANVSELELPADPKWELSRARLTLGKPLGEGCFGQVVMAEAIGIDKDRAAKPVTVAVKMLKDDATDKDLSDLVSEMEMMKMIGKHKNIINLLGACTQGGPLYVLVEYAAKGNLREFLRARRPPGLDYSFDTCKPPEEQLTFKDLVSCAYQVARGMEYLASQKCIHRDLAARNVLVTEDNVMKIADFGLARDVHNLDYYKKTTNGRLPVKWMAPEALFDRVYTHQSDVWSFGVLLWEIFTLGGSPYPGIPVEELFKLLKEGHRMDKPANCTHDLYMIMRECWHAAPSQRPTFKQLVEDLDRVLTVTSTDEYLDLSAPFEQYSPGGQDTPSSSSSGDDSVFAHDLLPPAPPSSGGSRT

Structure (SMILES)	IC50 [1] [nM]	IC50 [2, 5] [nM]	IC50 [3, 6] [nM]	IC50 [4] [nM]	IC50 [3] [nM]	IC50 [2, 7] [nM]	IC50 [4, 8] [nM]
COc1cc2[nH]nc(-c3ccc(N4CCN(C)CC4)nc3)c2nc1-c1cccc2c1CCC2C#N (single isomer, unassigned) [Example 186, 4-(6-Methoxy-3-(6-(4-methylpiperazin-1-yl)pyridin-3-yl)-1H-pyrazolo[4,3-b]pyridin-5-yl)-2,3-dihydro-1H-indene-1-carbonitrile]	< 6	6 to 40	6 to 40	< 6	–	–	–
COc1cc2[nH]nc(-c3ccc(C4CCN(C(C)C(N)=O)C4)nc3)c2nc1-c1cccc2c1CCC2 (single isomer, unassigned) [Example 107, 2-(3-(5-(5-(2,3-Dihydro-1H-inden-4-yl)-6-methoxy-1H-pyrazolo[4,3-b]pyridin-3-yl)pyridin-2-yl)pyrrolidin-1-yl)propanamide]	< 6	6 to 40	6 to 40	< 6	–	–	–
COc1cc2[nH]nc(-c3ccc(C4CCC(O)CC4)nc3)c2nc1-c1cccc2c1CCC2C#N (centres unmarked) [Example 113, 4-(3-(6-(4-Hydroxycyclohexyl)pyridin-3-yl)-6-methoxy-1H-pyrazolo[4,3-b]pyridin-5-yl)-2,3-dihydro-1H-indene-1-carbonitrile]	< 6	6 to 40	–	< 6	40 to 100	–	–
COc1cc2[nH]nc(-c3cnn(C4CN(C(=O)CCN(C)C)C4)c3)c2nc1-c1cccc2c1CCC2 [Example 117, 1-(3-(4-(5-(2,3-Dihydro-1H-inden-4-yl)-6-methoxy-1H-pyrazolo[4,3-b]pyridin-3-yl)-1H-pyrazol-1-yl)azetidin-1-yl)-3-(dimethylamino)propan-1-one]	< 6	6 to 40	–	< 6	40 to 100	–	–
COc1cc2[nH]nc(-c3ccc(C4CN(C(=O)[C@H](C)O)C4)nc3)c2nc1-c1cccc2c1CCC2 [Example 177, (S)-1-(3-(5-(5-(2,3-Dihydro-1H-inden-4-yl)-6-methoxy-1H-pyrazolo[4,3-b]pyridin-3-yl)pyridin-2-yl)azetidin-1-yl)-2-hydroxypropan-1-one]	< 6	–	–	< 6	40 to 100	40 to 100	–
Cn1cc(-c2n[nH]c3cc(CO)c(-c4cccc5c4CCC5)nc23)cn1 [Example 36, (5-(2,3-Dihydro-1H-inden-4-yl)-3-(1-methyl-1H-pyrazol-4-yl)-1H-pyrazolo[4,3-b]pyridin-6-yl)methanol]	< 6	–	–	–	> 100	40 to 100	6 to 40
COCCOc1ccc(-c2n[nH]c3cc(OC)c(-c4cccc5c4CC(O)C5)nc23)cn1 (centres unmarked) [Example 95, 4-(6-Methoxy-3-(6-(2-methoxyethoxy)pyridin-3-yl)-1H-pyrazolo[4,3-b]pyridin-5-yl)-2,3-dihydro-1H-inden-2-ol]	< 6	–	–	–	> 100	40 to 100	6 to 40
COC(=O)N1CC(n2cc(-c3n[nH]c4cc(OC)c(-c5cccc6c5CCC6)nc34)cn2)C1 [Example 21, Methyl 3-(4-(5-(2,3-dihydro-1H-inden-4-yl)-6-methoxy-1H-pyrazolo[4,3-b]pyridin-3-yl)-1H-pyrazol-1-yl)azetidine-1-carboxylate]	< 6	–	–	< 6	40 to 100	40 to 100	–
COc1cc2[nH]nc(-c3cnn([C@H]4CCN(C(=O)[C@@H](C)O)C4)c3)c2nc1-c1cccc2c1CCC2 [Example 132, (R)-1-((S)-3-(4-(5-(2,3-Dihydro-1H-inden-4-yl)-6-methoxy-1H-pyrazolo[4,3-b]pyridin-3-yl)-1H-pyrazol-1-yl)pyrrolidin-1-yl)-2-hydroxypropan-1-one]	< 6	6 to 40	–	< 6	40 to 100	–	–
[2H]C1(O)Cc2cccc(-c3nc4c(-c5cnn(C)c5)n[nH]c4cc3OC)c2C1 (single isomer, unassigned) [Example 74, 4-(6-Methoxy-3-(1-methyl-1H-pyrazol-4-yl)-1H-pyrazolo[4,3-b]pyridin-5-yl) 2,3-dihydro-1H-inden-2-d-2-ol]	< 6	6 to 40	–	< 6	> 100	–	–
COc1cc2[nH]nc(-c3cnn(C4CN(C(=O)[C@@H]5CCCO5)C4)c3)c2nc1-c1cccc2c1CCC2 [Example 130, (S)-(3-(4-(5-(2,3-Dihydro-1H-inden-4-yl)-6-methoxy-1H-pyrazolo[4,3-b]pyridin-3-yl)-1H-pyrazol-1-yl)azetidin-1-yl)(tetrahydrofuran-2-yl)methanone]	< 6	6 to 40	6 to 40	< 6	–	–	–
CNc1cc2[nH]nc(-c3cnn(C)c3)c2nc1-c1cccc(C)c1C [Example 34, 5-(2,3-Dimethylphenyl)-N-methyl-3-(1-methyl-1H-pyrazol-4-yl)-1H-pyrazolo[4,3-b]pyridin-6-amine]	< 6	–	–	< 6	> 100	40 to 100	–
COc1cc2[nH]nc(-c3cnn(C4CN(C(=O)[C@@H]5CCN5CCF)C4)c3)c2nc1-c1cccc2c1CCC2 [Example 141, (S)-(3-(4-(5-(2,3-Dihydro-1H-inden-4-yl)-6-methoxy-1H-pyrazolo[4,3-b]pyridin-3-yl)-1H-pyrazol-1-yl)azetidin-1-yl)(1-(2-fluoroethyl)azetidin-2-yl)methanone]	< 6	6 to 40	6 to 40	< 6	–	–	–
COc1cc2[nH]nc(-c3cnn(C4CN(C(=O)C[C@@H](C)O)C4)c3)c2nc1-c1cccc2c1CCC2 [Example 134, (R)-1-(3-(4-(5-(2,3-Dihydro-1H-inden-4-yl)-6-methoxy-1H-pyrazolo[4,3-b]pyridin-3-yl)-1H-pyrazol-1-yl)azetidin-1-yl)-3-hydroxybutan-1-one]	< 6	6 to 40	–	< 6	40 to 100	–	–
COc1cc2[nH]nc(-c3cnn(C4CN(C(=O)[C@H](C)O)C4)c3)c2nc1-c1cccc2c1CCC2 [Example 124, (S)-1-(3-(4-(5-(2,3-Dihydro-1H-inden-4-yl)-6-methoxy-1H-pyrazolo[4,3-b]pyridin-3-yl)-1H-pyrazol-1-yl)azetidin-1-yl)-2-hydroxypropan-1-one]	< 6	6 to 40	–	< 6	40 to 100	–	–
COc1cc2[nH]nc(-c3cnn(C4CN(C(=O)N(C)C)C4)c3)c2nc1-c1cccc2c1CCC2 [Example 24, 3-(4-(5-(2,3-Dihydro-1H-inden-4-yl)-6-methoxy-1H-pyrazolo[4,3-b]pyridin-3-yl)-1H-pyrazol-1-yl)-N,N-dimethylazetidine-1-carboxamide]	< 6	6 to 40	6 to 40	< 6	–	–	–
COc1cc2[nH]nc(-c3ccc(C4CCN(C(C)=O)C4)nc3)c2nc1-c1cccc2c1CCC2C#N (single isomer, unassigned) [Example 183, 4-(3-(6-(1-Acetylpyrrolidin-3-yl)pyridin-3-yl)-6-methoxy-1H-pyrazolo[4,3-b]pyridin-5-yl)-2,3-dihydro-1H-indene-1-carbonitrile]	< 6	6 to 40	6 to 40	< 6	–	–	–
Cc1cccc(-c2nc3c(-c4cnn(C)c4)n[nH]c3cc2CO)c1C [Example 38, (5-(2,3-Dimethylphenyl)-3-(1-methyl-1H-pyrazol-4-yl)-1H-pyrazolo[4,3-b]pyridin-6-yl)methanol]	< 6	–	–	–	> 100	> 100	6 to 40
COc1cc2[nH]nc(-c3ccc(N4CCN5C[C@H](O)C[C@H]5C4)nc3)c2nc1-c1cccc(C)c1C [Example 87, (7R,8aS)-2-(5-(5-(2,3-Dimethylphenyl)-6-methoxy-1H-pyrazolo[4,3-b]pyridin-3-yl)pyridin-2-yl)octahydropyrrolo[1,2-a]pyrazin-7-ol]	< 6	–	–	< 6	40 to 100	40 to 100	–
COc1cc2[nH]nc(-c3cnn(C4CCN(C(=O)N(C)C)CC4)c3)c2nc1-c1cccc2c1CCC2 [Example 19, 4-(4-(5-(2,3-Dihydro-1H-inden-4-yl)-6-methoxy-1H-pyrazolo[4,3-b]pyridin-3-yl)-1H-pyrazol-1-yl)-N,N-dimethylpiperidine-1-carboxamide]	< 6	–	–	< 6	> 100	40 to 100	–
COc1cc2[nH]nc(-c3ccc(CN4CCC(O)CC4)nc3)c2nc1-c1cccc2c1CCC2 [Example 160, 1-((5-(5-(2,3-Dihydro-1H-inden-4-yl)-6-methoxy-1H-pyrazolo[4,3-b]pyridin-3-yl)pyridin-2-yl)methyl)piperidin-4-ol]	< 6	–	–	< 6	40 to 100	40 to 100	–
COc1cc2[nH]nc(-c3ccc(C4CCN(C(=O)CO)CC4)nc3)c2nc1-c1cccc2c1CCC2 [Example 100, 1-(4-(5-(5-(2,3-Dihydro-1H-inden-4-yl)-6-methoxy-1H-pyrazolo[4,3-b]pyridin-3-yl)pyridin-2-yl)piperidin-1-yl)-2-hydroxyethan-1-one]	< 6	6 to 40	6 to 40	< 6	–	–	–
COc1cc2[nH]nc(-c3cnn(C4CC(C#N)C4)c3)c2nc1-c1cccc2c1CCC2C#N (centres unmarked) [Example 111, 4-(3-(1-(3-Cyanocyclobutyl)-1H-pyrazol-4-yl)-6-methoxy-1H-pyrazolo[4,3-b]pyridin-5-yl)-2,3-dihydro-1H-indene-1-carbonitrile]	< 6	–	–	< 6	40 to 100	< 6	–
